What was measured:
[1] = target: T1, CDK2 (Homo sapiens, UniProt P24941); experiment: CDK protein degradation activity (Western blotting), CDK2; format: cell-based; settings: MDA-MB-231 cells, 16 hours, Western blot
T1 construct: endogenous in cells; host or cells: MDA-MB-231
Outline: (§1)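 Breast cancer line MDA-MB-231, 16 h compound treatment (100 nM–10 μM final, three doses). Immunoblot quantification of CDK2/CDK9 versus tubulin, normalized to DMSO control.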

[2] = target: T2, CDK9 (Homo sapiens, UniProt P50750); experiment: CDK protein degradation activity (Western blotting), CDK9; format: cell-based; settings: MDA-MB-231 cells, 16 hours, Western blot
T2 construct: endogenous in cells; host or cells: MDA-MB-231
Outline: as §1

T2 sequence (P50750 whole entry): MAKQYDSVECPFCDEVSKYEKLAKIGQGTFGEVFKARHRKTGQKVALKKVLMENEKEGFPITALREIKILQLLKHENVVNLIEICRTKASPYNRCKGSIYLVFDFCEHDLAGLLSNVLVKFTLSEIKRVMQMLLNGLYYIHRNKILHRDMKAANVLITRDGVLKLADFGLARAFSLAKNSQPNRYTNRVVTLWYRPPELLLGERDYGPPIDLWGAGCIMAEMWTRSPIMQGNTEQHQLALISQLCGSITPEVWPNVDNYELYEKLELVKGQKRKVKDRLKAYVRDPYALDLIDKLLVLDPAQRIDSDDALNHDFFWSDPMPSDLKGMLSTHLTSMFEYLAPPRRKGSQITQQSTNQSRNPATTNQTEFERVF

SMILES: Cc1cccc(C(=O)NC2CC(n3cnc4c(NCCC5CCN(CC6CCN(C(=O)CNc7cccc8c7C(=O)N([C@H]7CCC(=O)NC7=O)C8=O)CC6)CC5)ncnc43)C2)n1 (stereo partly drawn) [Compound 123, N-((1s,3s)-3-(6-((2-(1-((1-((2-(2,6-dioxopiperidin-3-yl)-1,3-dioxoisoindolin-4-yl)glycyl)piperidin-4-yl)methyl)piperidin-4-yl)ethyl)amino)-9H-purin-9-yl)cyclobutyl)-6-methylpicolinamide]
- Enzyme degradation CDK2 (% remaining) @ 0.1 μM [1]: 10%
- Enzyme degradation CDK2 (% remaining) @ 1 μM [1]: 10%
- Enzyme degradation CDK2 (% remaining) @ 10 μM [1]: 20%
- Enzyme degradation CDK9 (% remaining) @ 0.1 μM [2]: 0/0/0%
- Enzyme degradation CDK9 (% remaining) @ 1 μM [2]: 0/0/0%
- Enzyme degradation CDK9 (% remaining) @ 10 μM [2]: 0/0/0%

SMILES: Cc1cccc(C(=O)NC2CC(n3cnc4c(Nc5ccc(N6CCN(C7CC8(CCN(C(=O)COc9ccc([C@@H]%10CCC(=O)NC%10=O)cc9)CC8)C7)CC6)cc5)ncnc43)C2)n1 (stereo partly drawn) [Compound 435, N-((1s,3s)-3-(6-((4-(4-(7-(2-(4-(2,6-dioxopiperidin-3-yl)phenoxy)acetyl)-7-azaspiro[3.5]nonan-2-yl)piperazin-1-yl)phenyl)amino)-9H-purin-9-yl)cyclobutyl)-6-methylpicolinamide]
- Enzyme degradation CDK2 (% remaining) @ 0.1 μM [1]: 40/40/40%
- Enzyme degradation CDK2 (% remaining) @ 1 μM [1]: 40/40/40%
- Enzyme degradation CDK2 (% remaining) @ 10 μM [1]: 40/40/40%
- Enzyme degradation CDK9 (% remaining) @ 0.1 μM [2]: 10/10/10%
- Enzyme degradation CDK9 (% remaining) @ 1 μM [2]: 10/10/10%
- Enzyme degradation CDK9 (% remaining) @ 10 μM [2]: 10/10/10%

SMILES: Cc1cccc(C(=O)N[C@H]2C[C@@H](n3cnc4c(Nc5ccc(N6CCN(C7CC8(CCN(C(=O)C9CN(c%10ccc%11c(c%10)C(=O)N(C%10CCC(=O)NC%10=O)C%11=O)C9)CC8)C7)CC6)cc5)ncnc43)C2)n1 (stereo partly drawn) [Compound 387, N-((1s,3s)-3-(6-((4-(4-(7-(1-(2-(2,6-dioxopiperidin-3-yl)-1,3-dioxoisoindolin-5-yl)azetidin-3-carbonyl)-7-azaspiro[3.5]nonan-2-yl)piperazin-1-yl)phenyl)amino)-9H-purin-9-yl)cyclobutyl)-6-methylpicolinamide]
- Enzyme degradation CDK2 (% remaining) @ 0.1 μM [1]: 50%
- Enzyme degradation CDK2 (% remaining) @ 1 μM [1]: 40%
- Enzyme degradation CDK2 (% remaining) @ 10 μM [1]: 40%
- Enzyme degradation CDK9 (% remaining) @ 0.1 μM [2]: 20%
- Enzyme degradation CDK9 (% remaining) @ 1 μM [2]: 0%
- Enzyme degradation CDK9 (% remaining) @ 10 μM [2]: 0%

SMILES: Cc1cccc(C(=O)NC2CC(n3cnc4c(Nc5ccc(N6CCN(CC7CCN(C(=O)C8CCN(c9cc%10c(cc9F)C(=O)N([C@H]9CCC(=O)NC9=O)C%10=O)CC8)CC7)CC6)cc5C)ncnc43)C2)n1 (stereo partly drawn) [Compound 477, N-((1s,3s)-3-(6-((4-(4-((1-(1-(2-(2,6-dioxopiperidin-3-yl)-6-fluoro-1,3-dioxoisoindolin-5-yl)piperidin-4-carbonyl)piperidin-4-yl)methyl)piperazin-1-yl)-2-methylphenyl)amino)-9H-purin-9-yl)cyclobutyl)-6-methylpicolinamide]
- Enzyme degradation CDK2 (% remaining) @ 0.1 μM [1]: 20/20/20%
- Enzyme degradation CDK2 (% remaining) @ 1 μM [1]: 20/20/20%
- Enzyme degradation CDK2 (% remaining) @ 10 μM [1]: 20/20/20%
- Enzyme degradation CDK9 (% remaining) @ 0.1 μM [2]: 30/30/30%
- Enzyme degradation CDK9 (% remaining) @ 1 μM [2]: 30/30/30%
- Enzyme degradation CDK9 (% remaining) @ 10 μM [2]: 30/30/30%

SMILES: O=C1CC[C@H](N2C(=O)c3ccc(N4CCC(CCCN5CCN(c6ccc(Nc7ncnc8c7ncn8C7CC(NC(=O)Cc8ccccc8)C7)cc6)CC5)CC4)cc3C2=O)C(=O)N1 (stereo partly drawn) [Compound 262, N-((1s,3s)-3-(6-((4-(4-(3-(1-(2-(2,6-dioxopiperidin-3-yl)-1,3-dioxoisoindolin-5-yl)piperidin-4-yl)propyl)piperazin-1-yl)phenyl)amino)-9H-purin-9-yl)cyclobutyl)-2-phenylacetamide]
- Enzyme degradation CDK2 (% remaining) @ 0.1 μM [1]: 70%
- Enzyme degradation CDK2 (% remaining) @ 1 μM [1]: 90%
- Enzyme degradation CDK2 (% remaining) @ 10 μM [1]: 100%
- Enzyme degradation CDK9 (% remaining) @ 0.1 μM [2]: 40%
- Enzyme degradation CDK9 (% remaining) @ 1 μM [2]: 30%
- Enzyme degradation CDK9 (% remaining) @ 10 μM [2]: 10%

From patent publication US20260125382A1, “COMPOUNDS FOR INHIBITING OR DEGRADING CDK2 AND/OR CDK9 AND MEDICINAL USE THEREOF” (KOREA RESEARCH INSTITUTE OF CHEMICAL TECHNOLOGY, priority 2022, published 2026)
